Test results from patent publication US5716950A, “Diazacycloalkanealkylsulfonamide derivatives” (Nippon Shoji Kabushiki Kaisha, priority 1994, dated 1998).
Where two headings read alike, the source gives them in different places.

Tests used:
[1] = tested on: passive cutaneous anaphylaxis (PCA); experiment: Activity of suppressing passive cutaneous anaphylaxis (PCA); type: in vivo, Male Wistar rats; conditions: Rattus norvegicus, po, 1 h, 10 mg/kg-po, 1 hour before antigen challenge; read-out: % suppression of rat PCA
Procedure: Test compounds were examined on their antiallergic activities. […] After 48 hours, 1.0 ml of 0.5 % Evans Blue saline solution containing DNP.BSA (1 mg in protein) was injected through the tail vein to induce allergic reaction. After 30 minutes, the rats were sacrificed by bleeding and the skin of back where dye was leaked out was flayed and put it into 20 ml test tube with ground stopper. Thereto was added 1.0 ml of 1N KOH aqueous solution and then it was allowed to stand at 37° C. in incubator overnight for lysing. To this solution was added 8.3 ml of a mixture of acetone and 0.6N phosphoric acid (13:5) and the mixture was mixed well and then was filtered to remove the insoluble materials.
The test compounds were administered orally 1 hour before the antigen challenge. Suppression rate was expressed by percentage to the value in control where 0.5% aqueous methylcellulose solution was orally administered.

[2] = tested on: extracted ileum (histamine contraction); experiment: Antihistaminic activity: suppression of histamine-induced contraction of extracted ileum; set-up: species or system Female Hartley guinea pig; conditions: histamine 3×10^-7 M; guinea pig ileum; 50% suppression of contraction; read-out: anti-His in extracted ileum EC50
Procedure: Female Hartley guinea pig (weighing 500 to 650 g) were sacrificed and the ileum (length of about 10 to 25 cm) was extracted from the ileocecum to prepare a specimen (length of 3 cm). […] After allowing to stand for 60 minutes to make the specimen stable, a histamine (3×10^-7 M) was applied to the specimen at single application. Contraction of the specimen was determined and recorded using isotonic transducer. After repeating application of a histamine to make the contraction constant, a diluted solution of the test compound was applied. Three minutes after the application, a histamine was then added and an activity of suppressing contraction was examined.

male ICR mice = experiment: Toxicity Test (mouse acute toxicity, minimum lethal dose); type: in vivo; conditions: po, observed for 24 hours, head prints (10 mg/kg-po)
Excerpt: The test compounds were orally administered to male ICR mice (weighing to 30 g) after fasting overnight. […] The results were expressed by minimum lethal dose. Toxicity of any compounds of the present invention were weaker than that of ketotifen which was a reference compound.

[3] = tested on: mouse biphasic allergic dermal reaction; experiment: Mouse Biphasic Allergic Dermal Reaction; type: in vivo, Female Balb/c mice; conditions: for inhibition in vivo at 1 mg/kg / inhibition in vivo at 0.1 mg/kg: Mus musculus, oral; for suppression of the late allergic reaction (in words): edema after 24 hours
Procedure: Female Balb/c mice (weighing 18 to 25 g) were subjected to passive sensitization by intravenous administration of 1 ml of anti-DNP monoclonal IgE antibody showing 1:1024 of antibody titer. 24 hours after the sensitization, 25 μl of 0.15% dinitrofluorobenzene (DNFB) were applied to both sides of right and left auricles of mouse for inducing allergic reactions. Thickness of auricles were measured using Dial Thickness Gauge before the challenge with DNFB, and 1 and 24 hours after the challenge. And then, increase in thickness of auricles at 1 hour after the challenge (edema caused by immediate allergic reaction) and that at 24 hours after the challenge (edema caused by late allergic reaction) were calculated against the thickness of auricles before the challenge with DNFB, respectively.
Suppression rate was expressed by relative ratio (%) to the value in control in which a solvent was administered.
Test compounds, diphenhydramine which is a existing classical antihistamic drug, amlexanox which is an antiallergic drug and dexamethasone which is a steroidal drug were administered orally (partly intraperitoneally) once before antigen challenge.
The above test was performed by using a mouse biphasic allergic dermal reaction model which was a new model [see, Sakurai T, Inagaki, N. and Nagai, H Life Sci., 54, PL291-295 (1994)]. In this model, the immediate allergic reaction was induced by mediator release from mast cell at 1 hour after the challenge, and the late allergic reaction with inflammatory cells such as eosinophil (edema after 24 hours) was induced after 24 hours from the challenge.

[4] = 1 h, read-out: immediate edema (1 hr) suppression (%)
[5] = 24 h, read-out: late edema (24 hr) suppression (%)

Compound	inhibition in vivo at 10 mg/kg [1] [%]	EC50 [2] [µM]	mouse acute toxicity (lethal dose) (male ICR mice) [mg/kg]	inhibition in vivo at 1 mg/kg [3, 4] [%]	inhibition in vivo at 0.1 mg/kg [3, 5] [%]	inhibition in vivo at 1 mg/kg [3, 5] [%]	suppression of the late allergic reaction (in words) [3]	inhibition in vivo at 0.1 mg/kg [3, 4] [%]
O=S(=O)(CCCCCCN1CCN(C(c2ccc(F)cc2)c2ccccn2)CC1)NC1CC1 (centres unmarked) [Example 56]	94.5	0.44	> 500	15.8	3.8	34.6	showed strong activity of suppressing the late allergic reaction	–
O=S(=O)(CCCCCCN1CCN(C(c2ccccc2)c2ccc(Cl)cc2)CC1)NC1CC1 (centres unmarked) [Example 54]	89.2	0.42	> 500	52.4	37	51.9	showed strong activity of suppressing the late allergic reaction	19
O=S(=O)(CCCCCCN1CCN(C(c2ccccc2)c2ccc(Cl)cc2)CC1)NCCO (centres unmarked) [Example 101]	88	0.81	> 500	–	–	–	–	–
CN(C)S(=O)(=O)CCCCCCN1CCN(C(c2ccccc2)c2ccccn2)CC1 (centres unmarked) [Example 67]	84.1	0.42	> 500	–	–	–	–	–
CNS(=O)(=O)CCCCCCN1CCN(C(c2ccc(F)cc2)c2ccccn2)CC1 (centres unmarked) [Example 26]	71	0.3	> 500	–	–	–	–	–
O=S(=O)(CCCCCCCN1CCN(C(c2ccccc2)c2ccc(Cl)cc2)CC1)NC1CC1 (centres unmarked) [Example 115]	73.2	0.79	> 500	–	–	–	–	–
O=S(=O)(CCCCN1CCN(C(c2ccccc2)c2ccc(Cl)cc2)CC1)NC1CCCC1 (centres unmarked) [Example 135]	74.4	1.1	> 500	–	–	–	–	–
CN(C)S(=O)(=O)CCCCCCN1CCN(C(c2ccccc2)c2ccc(Cl)cc2)CC1 (centres unmarked) [Example 64]	72.5	0.36	> 500	–	–	–	–	–
O=S(=O)(CCCCCCCCN1CCN(C(c2ccccc2)c2ccc(Cl)cc2)CC1)NC1CC1 (centres unmarked) [Example 116]	70.2	0.12	> 500	–	–	–	–	–
CN(C)S(=O)(=O)CCCCCCN1CCN(C(c2ccc(F)cc2)c2ccc(F)cc2)CC1 [Example 65]	74.7	0.43	> 500	–	–	–	–	–
O=S(=O)(CCCCCCN1CCN(C(c2ccccc2)c2cccc(Cl)c2)CC1)NC1CC1 (centres unmarked) [Example 120]	93.4	0.7	> 500	56.5	7.1	25	showed strong activity of suppressing the late allergic reaction	26.1
NS(=O)(=O)CCCCCCCCN1CCN(C(c2ccccc2)c2ccc(Cl)cc2)CC1 (centres unmarked) [Example 4]	89	0.65	> 500	–	–	–	–	–
CN(C)S(=O)(=O)CCCCCCCCN1CCN(C(c2ccccc2)c2ccccc2F)CC1 (centres unmarked) [Example 69]	88.3	0.15	> 500	–	–	–	–	–
CC(C)NS(=O)(=O)CCCCCCCCN1CCN(C(c2ccc(F)cc2)c2ccccn2)CC1 (centres unmarked) [Example 48]	83.8	0.35	> 500	–	–	–	–	–
O=S(=O)(CCCCCCN1CCN(C(c2ccc(F)cc2)c2ccccn2)CC1)NC1CCCC1 (centres unmarked) [Example 61]	89.7	0.31	> 500	–	37	44.4	showed strong activity of suppressing the late allergic reaction	5
O=S(=O)(CCCCCCN1CCN(C(c2ccccc2)c2ccc(Cl)cc2)CC1)NC1CCCCC1 (centres unmarked) [Example 143]	87.8	2.8	> 500	40	4	28	showed strong activity of suppressing the late allergic reaction	24

Compound	inhibition in vivo at 10 mg/kg [1] [%]	EC50 [2] [µM]	mouse acute toxicity (lethal dose) (male ICR mice) [mg/kg]	inhibition in vivo at 1 mg/kg [3, 4] [%]	inhibition in vivo at 0.1 mg/kg [3, 5] [%]	inhibition in vivo at 1 mg/kg [3, 5] [%]	suppression of the late allergic reaction (in words) [3]	inhibition in vivo at 0.1 mg/kg [3, 4] [%]
CCNS(=O)(=O)CCCCCCN1CCN(C(c2ccc(F)cc2)c2ccccn2)CC1 (centres unmarked) [Example 32]	86.8	0.84	> 500	–	–	–	–	–
O=S(=O)(CCCCCCCN1CCN(C(c2ccccc2)c2ccc(Cl)cc2)CC1)NC1CCCC1 (centres unmarked) [Example 137]	75.8	2.2	> 500	–	–	–	–	–
O=S(=O)(CCCCCCN1CCN(C(c2ccccc2)c2ccc(F)cc2)CC1)NC1CC1 (centres unmarked) [Example 124]	88.4	0.2	> 500	–	–	–	–	–
NS(=O)(=O)CCCCCCCCCCN1CCN(C(c2ccccc2)c2ccc(Cl)cc2)CC1 (centres unmarked) [Example 104]	86.7	6.8	> 500	–	–	–	–	–
O=S(=O)(CCCCCCN1CCN(C(c2ccccc2)c2ccc(Cl)cc2)CC1)NC1CCCC1 (centres unmarked) [Example 59]	96.4	2.9	> 500	–	–	–	–	–
NS(=O)(=O)CCCCCCCCN1CCN(C(c2ccc(F)cc2)c2ccccn2)CC1 (centres unmarked) [Example 13]	73.8	0.32	> 500	–	–	–	–	–
CN(C)S(=O)(=O)CCCCCCCN1CCN(C(c2ccccc2)c2ccc(Cl)cc2)CC1 (centres unmarked) [Example 150]	89.1	0.35	> 500	–	–	–	–	–
O=S(=O)(CCCCCN1CCN(C(c2ccccc2)c2ccc(Cl)cc2)CC1)NC1CCCC1 (centres unmarked) [Example 136]	80.2	0.54	> 500	–	–	–	–	–
NS(=O)(=O)CCCCCCN1CCN(C(c2ccccc2)c2ccc(Cl)cc2)CC1 (centres unmarked) [Example 3]	95.2	0.76	> 500	–	–	–	–	–
CCCNS(=O)(=O)CCCCCCCCCCN1CCN(C(c2ccc(F)cc2)c2ccccn2)CC1 (centres unmarked) [Example 42]	80.2	0.33	> 500	–	–	–	–	–
CCNS(=O)(=O)CCCCCN1CCN(C(c2ccc(F)cc2)c2ccccn2)CC1 (centres unmarked) [Example 31]	87.2	0.77	> 500	–	–	–	–	–
CC(C)NS(=O)(=O)CCCCCCN1CCN(C(c2ccccc2)c2ccc(Cl)cc2)CC1 (centres unmarked) [Example 43]	86.5	0.69	> 500	–	–	–	–	–
CCNS(=O)(=O)CCCCCCN1CCN(C(c2ccccc2)c2ccc(Cl)cc2)CC1 (centres unmarked) [Example 29]	95.7	0.75	> 500	–	–	–	–	–
COc1cc(NS(=O)(=O)CCCCCCN2CCN(C(c3ccccc3)c3ccccc3)CC2)cc(OC)c1OC [Example 99]	72.1	1.3	> 500	–	–	–	–	–
CN(C)S(=O)(=O)CCCCCCN1CCN(C(c2ccncc2)c2ccc(Cl)cc2)CC1 (centres unmarked) [Example 66]	82.8	0.42	> 500	–	–	–	–	–
